Reference: patent US6355799B1, “Substituted benzene compounds, process for their preparation, and herbicidal and defoliant compositions containing them” (ISK Americas Incorporated, priority 1997, dated 2002)

Tests used:
Assay type in all cases: in vivo
[1] = test system: redroot pigweed (Amaranthus retroflexus, AMARE); assay: Pre-emerge test, greenhouse herbicide activity screening; details: pre-emerge, 14 days after application, scale 0-100
Procedure, shortened: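 Herbicidal damage is scored 0 (none) to 100 (complete plant death) two weeks after a simulated field spray. Rates span 15–1000 g ai/ha, delivered in acetone at 187 l/ha. For post-emergence treatments, plants have 2–3 leaves and the spray carries 0.25% v/v non-ionic surfactant.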

[2] = test system: velvetleaf (Abutilon theophrasti, ABUTH); assay: Post-emerge test, greenhouse herbicide activity screening; details: post-emerge, 14 days after application, rating scale 0-100
Source text: (§1) A standard greenhouse herbicide activity screening system was used to evaluate the herbicidal efficacy and crop safety of these test compounds. Seven broadleaf weed species including redroot pigweed (Amaranthus retroflexus, AMARE, velvetleaf (Abutilon theophrasti, ABUTH), sicklepod (Cassia obtusifolia, CASOB), ivyleaf morningglory (Ipomoea hederacea, IPOHE), lambsquarters (Chenopodium album, CHEAL), common ragweed (Ambrosia artemisizfolia L., AMBEL), and cocklebur (Xanthium strumarium, XANST) were used as test species. Four grass weed species including green foxtail (Setaria viridis, SETVI), barnyardgrass (Echinochloa crus-galli, ECHCG), johnsongrass (Sorghum halepense, SORHA), and large crabgrass (Digitaria sanguinalis, DIGSA) were also used. In addition, three crop species, field corn (Zea mays L., var. Dekalb 535, CORN), soybean (Glycine max L., var. Pella 86, SOY), and is upland rice (Oryza sp., var. Tebonnet, RICE) were included.
(§2) All plants were grown in 10 cm square plastic pots which were filled with a sandy loam soil mix. For pre-emerge tests, seeds were planted one day prior to application of the test compounds. For post-emerge tests, seeds were planted 8-21 days prior to the test to allow emergence and good foliage development prior to application of the test substances. At the time of the post-emerge application, plants of all species were usually at the 2-3 leaf stage of development.
(§3) All test compounds Were dissolved in acetone and applied to the test units in a volume of 187 l /ha. Test materials were applied at rates ranging from 15 g ai/ha to 1000 g ai/ha using a track sprayer equipped with a TJ8001E even flow flat fan spray nozzle. Plants were arranged on a shelf so that the top of the canopy (post-emerge) or top of the soil surface (pre-emerge) was 40-45 cm below the nozzle. Pressurized air was used to force the test solution through the nozzle as it was mechanically advanced (via electrically driven chain drive) over the top of all test plants/pots. This application simulates a typical commercial field herbicide application.
(§4) In the post-emerge test, a commercial non-ionic surfactant was also included (0.25% v/v) to enhance wetting of the leaf surfaces of target plants. Immediately after application, test units of the pre-emerge applications were watered at the soil surface to incorporate the test materials. Subsequently, these test units were bottom-watered. Post-emerge test units were always bottom-watered.
(§5) At 14 days after application of the test materials, phytotoxicity ratings were recorded. A rating scale of 0-100 was used as previously described in Research Methods in Weed Science, 2nd edition, B. Truelove, Ed., Southern Weed Science Society, Auburn University, Auburn, Ala. 1977. Briefly, “0” corresponds to no damage and “100” corresponds to complete death of all plants in the test unit. This scale was used both to determine efficacy against weed species and damage to crop species. Herbicide activity data for various compounds of this invention, which are shown by compound No. in Tables 1-8, are shown in Tables 11 and 12.

[3] = test system: large crabgrass (Digitaria sanguinalis, DIGSA); assay: as above; details: post-emerge, 14 days after application, rating scale 0-100
Source text: as §1, §2, §3, §4, §5

[4] = test system: lambsquarters (Chenopodium album, CHEAL); assay: as above; details: post-emerge, 14 days after application, rating scale 0-100
Source text: as §1, §2, §3, §4, §5

[5] = test system: green foxtail (Setaria viridis, SETVI); assay: as above; details: post-emerge, 14 days after application, rating scale 0-100
Source text: as §1, §2, §3, §4, §5

[6] = test system: redroot pigweed (Amaranthus retroflexus, AMARE); assay: as above; details: post-emerge, 14 days after application, rating scale 0-100
Source text: as §1, §2, §3, §4, §5

[7] = test system: ivyleaf morningglory (Ipomoea hederacea, IPOHE); assay: as above; details: post-emerge, 14 days after application, rating scale 0-100
Source text: as §1, §2, §3, §4, §5

[8] = test system: sicklepod (Cassia obtusifolia, CASOB); assay: as above; details: post-emerge, 14 days after application, rating scale 0-100
Source text: as §1, §2, §3, §4, §5

[9] = test system: barnyardgrass (Echinochloa crus-galli, ECHCG); assay: as above; details: post-emerge, 14 days after application, rating scale 0-100
Source text: as §1, §2, §3, §4, §5

[10] = test system: field corn (Zea mays L., var. Dekalb 535, CORN); assay: Post-emerge test, crop safety; details: post-emerge, 14 days after application, rating scale 0-100
Procedure, shortened: (§6)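 Rating: 0–100 visual injury, 14 DAA. Application: acetone, 187 l/ha, 15–1000 g ai/ha, flat-fan track sprayer with nozzle 40–45 cm above soil or canopy. Post-emerge runs used 0.25% v/v surfactant on 2–3 leaf plants.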

[11] = test system: upland rice (Oryza sp., var. Tebonnet, RICE); assay: Post-emerge test, crop safety; details: post-emerge, 14 days after application, rating scale 0-100
Procedure, shortened: as §6

[12] = test system: field corn (Zea mays L., var. Dekalb 535, CORN); assay: Pre-emerge test, crop safety; details: pre-emerge, 14 days after application, scale 0-100
Procedure, shortened: as §6

[13] = test system: upland rice (Oryza sp., var. Tebonnet, RICE); assay: Pre-emerge test, crop safety; details: pre-emerge, 14 days after application, scale 0-100
Procedure, shortened: as §6

[14] = test system: velvetleaf (Abutilon theophrasti, ABUTH); assay: Pre-emerge test, greenhouse herbicide activity screening; details: pre-emerge, 14 days after application, scale 0-100
Procedure, shortened: (§7)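 Compounds in acetone were track-sprayed at 15–1000 g ai/ha: pre-emergence onto soil sown the previous day, then top-watered to incorporate and later bottom-watered; post-emergence onto 2–3 leaf plants with 0.25% v/v surfactant, bottom-watered only. Ratings on a 0–100 phytotoxicity scale were taken at day 14.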

[15] = test system: large crabgrass (Digitaria sanguinalis, DIGSA); assay: as above; details: pre-emerge, 14 days after application, scale 0-100
Procedure, shortened: as §7

[16] = test system: lambsquarters (Chenopodium album, CHEAL); assay: as above; details: pre-emerge, 14 days after application, scale 0-100
Procedure, shortened: as §7

[17] = test system: green foxtail (Setaria viridis, SETVI); assay: as above; details: pre-emerge, 14 days after application, scale 0-100
Procedure, shortened: as §7

[18] = test system: ivyleaf morningglory (Ipomoea hederacea, IPOHE); assay: as above; details: pre-emerge, 14 days after application, scale 0-100
Procedure, shortened: as §7

[19] = test system: sicklepod (Cassia obtusifolia, CASOB); assay: as above; details: pre-emerge, 14 days after application, scale 0-100
Procedure, shortened: as §7

[20] = test system: barnyardgrass (Echinochloa crus-galli, ECHCG); assay: as above; details: pre-emerge, 14 days after application, scale 0-100
Procedure, shortened: as §7

COc1c(Cl)cc(F)c(-n2c(=O)cc(C(F)(F)F)n(N)c2=O)c1NC(=O)c1ccc2ccccc2c1 [2-184]
phytotoxicity rating AMARE ([1]; 63 g ai/ha): 100
phytotoxicity rating AMARE ([1]; 250 g ai/ha): 100
ABUTH phytotoxicity rating ([2]; 63 g ai/ha): 100
ABUTH phytotoxicity rating ([2]; 250 g ai/ha): 100
DIGSA phytotoxicity rating ([3]; 63 g ai/ha): 20
DIGSA phytotoxicity rating ([3]; 250 g ai/ha): 90
CHEAL phytotoxicity rating ([4]; 63 g ai/ha): 100
CHEAL phytotoxicity rating ([4]; 250 g ai/ha): 100
SETVI phytotoxicity rating ([5]; 63 g ai/ha): 60
SETVI phytotoxicity rating ([5]; 250 g ai/ha): 80
AMARE phytotoxicity rating ([6]; 63 g ai/ha): 100
AMARE phytotoxicity rating ([6]; 250 g ai/ha): 100
IPOHE phytotoxicity rating ([7]; 63 g ai/ha): 100
IPOHE phytotoxicity rating ([7]; 250 g ai/ha): 100
CASOB phytotoxicity rating ([8]; 63 g ai/ha): 100
CASOB phytotoxicity rating ([8]; 250 g ai/ha): 100
ECHCG phytotoxicity rating ([9]; 63 g ai/ha): 40
ECHCG phytotoxicity rating ([9]; 250 g ai/ha): 50
CORN phytotoxicity rating (crop damage) ([10]; 63 g ai/ha): 10
CORN phytotoxicity rating (crop damage) ([10]; 250 g ai/ha): 75
RICE phytotoxicity rating (crop damage) ([11]; 63 g ai/ha): 40
RICE phytotoxicity rating (crop damage) ([11]; 250 g ai/ha): 65
phytotoxicity rating CORN (crop damage) ([12]; 63 g ai/ha): 0
phytotoxicity rating CORN (crop damage) ([12]; 250 g ai/ha): 30
phytotoxicity rating RICE (crop damage) ([13]; 63 g ai/ha): 30
phytotoxicity rating RICE (crop damage) ([13]; 250 g ai/ha): 60
phytotoxicity rating ABUTH ([14]; 63 g ai/ha): 100
phytotoxicity rating ABUTH ([14]; 250 g ai/ha): 100
phytotoxicity rating DIGSA ([15]; 63 g ai/ha): 60
phytotoxicity rating DIGSA ([15]; 250 g ai/ha): 100
phytotoxicity rating CHEAL ([16]; 63 g ai/ha): 100
phytotoxicity rating CHEAL ([16]; 250 g ai/ha): 100
phytotoxicity rating SETVI ([17]; 63 g ai/ha): 50
phytotoxicity rating SETVI ([17]; 250 g ai/ha): 100
phytotoxicity rating IPOHE ([18]; 63 g ai/ha): 50
phytotoxicity rating IPOHE ([18]; 250 g ai/ha): 100
phytotoxicity rating CASOB ([19]; 63 g ai/ha): 50
phytotoxicity rating CASOB ([19]; 250 g ai/ha): 75
phytotoxicity rating ECHCG ([20]; 63 g ai/ha): 30
phytotoxicity rating ECHCG ([20]; 250 g ai/ha): 80
